Assays:
[1] = cited from earlier work; for solubility (in words): WO 2007/039132, CHMP assessment report EMEA/H/C/000944
[2] = Polymorphic stability of Rivaroxaban dihydrate on storage (infrared spectroscopy); format: physicochemical; settings: about 25° C., relative humidity of about 76%, 6 weeks
Method: Infrared spectra (IR) were collected on a MKII Golden Gate™ Single Reflection Diamond ATR (attenuated total reflection) cell with a Bruker Tensor 27 FTIR spectrometer with 4 cm-1 resolution at ambient conditions. To collect a spectrum a spatula tip of a sample was applied to the surface of the diamond in powder form. Then the sample was pressed onto the diamond with a sapphire anvil and the spectrum was recorded. A spectrum of the clean diamond was used as background spectrum. A typical precision of the wavenumber values is in the range of about ±2 cm-1. Thus, an infrared peak that appears at 1716 cm-1 can appear between 1714 and 1718 cm-1 on most infrared spectrometers under standard conditions. […]

[3] = Moisture desorption isotherm / exposure to low relative humidity; format: physicochemical; settings: for relative humidity at which the dihydrate converts to an anhydrate form: 25° C., FIG. 7
Method: The moisture desorption isotherm were recorded with a SPS-11 moisture sorption analyzer (MD Messtechnik, Ulm, and D). The measurement cycle was performed by a decrease relative humidity (RH) in 10% steps. The equilibrium condition for each step was set to a mass constancy of ±0.001% over 50 min. The temperature was 25° C.±01° C.

O=C(NC[C@H]1CN(c2ccc(N3CCOCC3=O)cc2)C(=O)O1)c1ccc(Cl)s1 [Form I of Rivaroxabin, 5-Chloro-N-({(5S)-2-oxo-3-[4-(3-oxomorpholin-4-yl]phenyl)-1,3-oxazolidin-5-yl}methyl)thiophene-2-carboxamide]
solubility (in words) [1]: relatively low solubility

O=C(NC[C@H]1CN(c2ccc(N3CCOCC3=O)cc2)C(=O)O1)c1ccc(Cl)s1 [Modification II]
higher solubility compared to modification I ([1]; described in WO 2007/039132): 4 fold

O=C(NC[C@H]1CN(c2ccc(N3CCOCC3=O)cc2)C(=O)O1)c1ccc(Cl)s1 [amorphous form]
solubility (in words) [1]: higher solubility in comparison to modification I

O=C(NC[C@H]1CN(c2ccc(N3CCOCC3=O)cc2)C(=O)O1)c1ccc(Cl)s1 [crystalline dihydrate of Rivaroxaban, Rivaroxaban Dihydrate]
polymorphic stability on storage ([2]; listed as Rivaroxaban Dihydrate): polymorphic stable | polymorphic stability on storage ([2]; listed as crystalline dihydrate): does not convert to other polymorphic forms | relative humidity at which the dihydrate converts to an anhydrate form [3]: less than 20% | relative humidity at which the dihydrate converts to an anhydrate form ([3]; listed as dihydrate of Rivaroxaban): about 25% | exposure time to low relative humidity sufficient for transformation into anhydrate form ([3]; less than 20% relative humidity): about one

O=C(NC[C@H]1CN(c2ccc(N3CCOCC3=O)cc2)C(=O)O1)c1ccc(Cl)s1.O=CO [formic acid solvate of Rivaroxaban, Rivaroxaban.Formic Acid Solvate]
stability on storage at low relative humidity (less than about 20% relative humidity at 25° C.): stable | behaviour on storage at higher relative humidity (relative humidity of more than 20%, e.g. 30%, 60% or 97%): formic acid is lost and the dihydrate of Rivaroxaban is formed | behaviour on suspending in aqueous medium (suspended in aqueous medium): pure dihydrate of Rivaroxaban is formed

Reference: patent US9266868B2, “Crystalline form of rivaroxaban dihydrate” (SANDOZ AG, priority 2010, dated 2016)
